Several values for one entry are separate records, joined by “and”; a condition that tells them apart may be missing. Equal values may be shown once. Toxic doses and inconclusive results are not listed.

Data on 20 compounds can be found in PubChem BioAssay AID328 (DTP/NCI, 2004).

The test system of the test is BDF1 mice, P388 leukemia ip, median survival T/C. Put plainly: NCI In Vivo Anticancer Drug Screen. Data for tumor model P388 Leukemia (intraperitoneal) in B6D2F1 (BDF1) mice. To be noted: endpoint: median survival time, higher = longer survival. In a few lines: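 Read-out is survival of treated animals expressed relative to the vehicle group, as a T/C ratio.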
The mark [1] stands for this setting: dose: 100.0 mg/kg/injection, schedule: Q04DX003 (ip), vehicle: saline with Tween-80.
Setting [2] is: dose: 100.0 mg/kg/injection, schedule: Q01DX009 (ip), vehicle: other.
Setting [3] is: dose: 200.0 mg/kg/injection, schedule: Q01DX009 (ip), vehicle: other.
[4] abbreviates: dose: 400.0 mg/kg/injection, schedule: Q01DX009 (ip), vehicle: other.
The mark [5] stands for this setting: dose: 50.0 mg/kg/injection, schedule: Q01DX009 (ip), vehicle: saline.
Where [6] appears, read: dose: 50.0 mg/kg/injection, schedule: Q01DX009 (ip), vehicle: saline with Tween-80.
Setting [7] is: dose: 100.0 mg/kg/injection, schedule: Q01DX009 (ip), vehicle: saline with Tween-80.
Setting [8] is: dose: 200.0 mg/kg/injection, schedule: Q01DX009 (ip), vehicle: saline with Tween-80.
Setting [9] is: dose: 200.0 mg/kg/injection, schedule: Q04DX003 (ip), vehicle: saline with Tween-80.
The mark [10] stands for this setting: dose: 400.0 mg/kg/injection, schedule: Q01DX009 (ip), vehicle: saline with Tween-80.
The mark [11] stands for this setting: dose: 400.0 mg/kg/injection, schedule: Q04DX003 (ip), vehicle: saline with Tween-80.
Setting [12] is: dose: 50.0 mg/kg/injection, schedule: Q01DX009 (ip), vehicle: other.

For the compound `O=C(CCC(=O)[O][Sn]([c]1ccccc1)([c]1ccccc1)[c]1ccccc1)[O][Sn]([c]1ccccc1)([c]1ccccc1)[c]1ccccc1`, the T/C is, setting by setting: (dose: 0.39 mg/kg/injection, schedule: Q01DX009 (ip), vehicle: Klucel (hydroxypropylcellulose) (HPC)) 113 % of control; (dose: 0.78 mg/kg/injection, schedule: Q01DX009 (ip), vehicle: Klucel (hydroxypropylcellulose) (HPC)) 95 % of control; (dose: 1.56 mg/kg/injection, schedule: Q01DX009 (ip), vehicle: Klucel (hydroxypropylcellulose) (HPC)) 95 % of control; (dose: 3.12 mg/kg/injection, schedule: Q01DX009 (ip), vehicle: Klucel (hydroxypropylcellulose) (HPC)) 100 % of control and 104 % of control; (dose: 12.5 mg/kg/injection, schedule: Q01DX009 (ip), vehicle: Klucel (hydroxypropylcellulose) (HPC)) 120 % of control; (dose: 40.0 mg/kg/injection, schedule: Q04DX003 (ip), vehicle: Klucel (hydroxypropylcellulose) (HPC)) 104 % of control.
With `COc1ccc(C(=O)C=C(C(F)(F)F)C(F)(F)F)cc1`, the T/C is, setting by setting: (dose: 6.25 mg/kg/injection, schedule: Q04DX003 (ip), vehicle: saline with Tween-80) 113 % of control; (dose: 12.5 mg/kg/injection, schedule: Q04DX003 (ip), vehicle: saline with Tween-80) 100 % of control; (dose: 25.0 mg/kg/injection, schedule: Q04DX003 (ip), vehicle: saline with Tween-80) 100 % of control; (dose: 50.0 mg/kg/injection, schedule: Q04DX003 (ip), vehicle: saline with Tween-80) 115 % of control; under setting [1], 110 % of control.
Turning to `O=[N+]([O-])c1ccc(N2CCN(c3ccc(Cl)cc3)CC2)c2c1no[n+]2[O-]`, the T/C was 100 % of control (dose: 15.0 mg/kg/injection, schedule: Q01DX009 (ip), vehicle: saline with Tween-80); 99 % of control (dose: 30.0 mg/kg/injection, schedule: Q01DX009 (ip), vehicle: saline with Tween-80); 99 % of control (dose: 60.0 mg/kg/injection, schedule: Q01DX009 (ip), vehicle: saline with Tween-80).
As for `CCCCCCCCCCC(=O)CCCCC`, the T/C by setting is: under setting [2], 90 % of control; under setting [3], 100 % of control; under setting [4], 110 % of control.
In the case of `N/C(=N/N=C/c1ccncc1)N[N+](=O)[O-]`, under setting [5], the T/C is 90 % of control.
`CC(C)(Br)C(=O)c1ccc(Cl)s1`: the T/C under setting [6] is 101 % of control; the T/C under setting [7] is 111 % of control; the T/C under setting [1] was 109 % of control; the T/C under setting [8] is 119 % of control; the T/C under setting [9] was 115 % of control; the T/C under setting [10] was 119 % of control. The T/C under setting [11] was 107 % of control.
Regarding `CC(=O)c1ccc(C(=O)CC(O)(C(F)(F)F)C(F)(F)F)cc1`, the T/C runs as follows: under setting [12], 104 % of control; (dose: 50.0 mg/kg/injection, schedule: Q04DX003 (ip), vehicle: other) 90 % of control; under setting [2], 104 % of control; (dose: 100.0 mg/kg/injection, schedule: Q04DX003 (ip), vehicle: other) 95 % of control.
Regarding `Clc1ccc(CNc2ncnc3[nH]ncc23)cc1Cl`, the T/C was 100 % of control (dose: 12.5 mg/kg/injection, schedule: Q01DX009 (ip), vehicle: saline with Tween-80); 100 % of control (dose: 25.0 mg/kg/injection, schedule: Q01DX009 (ip), vehicle: saline with Tween-80); 100 % of control under setting [6].
On to `N#Cc1c(Cl)c(Cl)c(OC(=O)c2ccc(Cl)c(Cl)c2)c(Cl)c1Cl`, for which the T/C runs as follows: under setting [6], 117 % of control; under setting [7], 108 % of control; under setting [8], 94 % of control.
As to `COC1(c2ccco2)OC1(C)C` (centres undefined), the T/C runs as follows: (dose: 5.0 mg/kg/injection, schedule: Q01DX009 (ip), vehicle: Klucel (hydroxypropylcellulose) (HPC)) 86 % of control; (dose: 5.0 mg/kg/injection, schedule: Q04DX003 (ip), vehicle: saline) 109 % of control; (dose: 10.0 mg/kg/injection, schedule: Q01DX009 (ip), vehicle: Klucel (hydroxypropylcellulose) (HPC)) 86 % of control; (dose: 10.0 mg/kg/injection, schedule: Q04DX003 (ip), vehicle: saline) 109 % of control; (dose: 20.0 mg/kg/injection, schedule: Q01DX009 (ip), vehicle: Klucel (hydroxypropylcellulose) (HPC)) 90 % of control; (dose: 20.0 mg/kg/injection, schedule: Q04DX003 (ip), vehicle: saline) 104 % of control.
In the case of `CCOC(=O)/C=C(\C)Nc1cccc([N+](=O)[O-])c1`, the T/C by setting is: (dose: 25.0 mg/kg/injection, schedule: Q01DX009 (ip), vehicle: other) 110 % of control; under setting [12], 93 % of control; under setting [2], 100 % of control; under setting [3], 110 % of control; under setting [4], 116 % of control.
For the compound `CCOc1ccc(NC(=S)N(C)C)cc1`, the T/C by setting is: under setting [6], 90 % of control; under setting [7], 86 % of control.
With `Clc1ccc(-c2ncnc3c2Cc2ccccc2-3)cc1`, the T/C is, setting by setting: under setting [7], 112 % of control; under setting [8], 116 % of control; under setting [10], 100 % of control.
Regarding `CCCC(Cc1ccccc1)(C(=O)OCC)C(=O)OCC`, the T/C runs as follows: under setting [1], 99 % of control; under setting [9], 99 % of control; under setting [11], 91 % of control.
Take `NNc1ncnc2c1ncn2C1OC(CO)C(O)C1O` (centres undefined): the T/C was 90 % of control (dose: 7.5 mg/kg/injection, schedule: Q04DX003 (ip), vehicle: saline); 109 % of control (dose: 12.5 mg/kg/injection, schedule: Q01DX009 (ip), vehicle: saline); 113 % of control (dose: 15.0 mg/kg/injection, schedule: Q01DX010 (ip), vehicle: saline); 105 % of control (dose: 15.0 mg/kg/injection, schedule: Q04DX003 (ip), vehicle: saline); 109 % of control (dose: 25.0 mg/kg/injection, schedule: Q01DX009 (ip), vehicle: saline); 105 % of control (dose: 30.0 mg/kg/injection, schedule: Q04DX003 (ip), vehicle: saline). The T/C runs as follows: under setting [5], 113 % of control; (dose: 60.0 mg/kg/injection, schedule: Q01DX010 (ip), vehicle: saline) 154 % of control; (dose: 60.0 mg/kg/injection, schedule: Q04DX003 (ip), vehicle: saline) 120 % of control; (dose: 120.0 mg/kg/injection, schedule: Q04DX003 (ip), vehicle: saline) 105 % of control.
As to `NNc1nncn2c1cc1ccccc12`, the T/C is, setting by setting: under setting [6], 86 % of control; under setting [7], 107 % of control.
In the case of `C/C(C/C(C)=N\NC(=O)CN)=N/NC(=O)CN`, the T/C (dose: 33.75 mg/kg/injection, schedule: Q01DX009 (ip), vehicle: saline with Tween-80) was 104 % of control; the T/C (dose: 67.5 mg/kg/injection, schedule: Q01DX009 (ip), vehicle: saline with Tween-80) was 100 % of control; the T/C (dose: 135.0 mg/kg/injection, schedule: Q01DX009 (ip), vehicle: saline with Tween-80) was 106 % of control.
Take `O=S(=O)(OCCF)c1cc(Cl)c(Cl)cc1Cl`: the T/C (dose: 50.0 mg/kg/injection, schedule: Q01DX005 (ip), vehicle: Klucel (hydroxypropylcellulose) (HPC)) was 113 % of control.
Consider `Cc1cc(C=O)c(O)c(C=O)c1`, for which the T/C was 112 % of control (dose: 100.0 mg/kg/injection, schedule: Q04DX002 (ip), vehicle: saline with Tween-80); 110 % of control (dose: 200.0 mg/kg/injection, schedule: Q04DX002 (ip), vehicle: saline with Tween-80); 109 % of control (dose: 400.0 mg/kg/injection, schedule: Q04DX002 (ip), vehicle: saline with Tween-80).
Consider `Cc1nn(CCO)c(-c2ccccc2)c1-n1on1-c1c(C)nn(CCO)c1-c1ccccc1`, for which the T/C under setting [6] is 101 % of control.
